Test system: thoracic aorta blood vessel plaque
Details: high fat/high cholesterol fed rabbit; 5-ALA 80 mg/kg intraperitoneal 1.5 h before; substrate (carbamide peroxide) intravenously infused; irradiation once with 5 Gy; examined on the seventh day
Source text: The New-Zealand rabbit model of blood vessel plaque is a common animal experimental model. […] The blood vessel plaque was taken as the target region and positioned, and a radiotherapy plan was made.

NCC(=O)CCC(=O)O [5-ALA]
regression of thoracic aorta blood vessel plaque (CTA angiography and MR): completely disappeared
